IC50 and antiviral activity data for six molecules are collected here from US12544360B2, “Pharmaceutical composition for preventing or treating coronavirus disease-19” (priority 2020, dated 2026).

For assay [1], the system named is SARS-CoV-2. The experiment in a line: microbe, parasite or virus in culture. It is filed as cell-based. Particulars: for IC50: Severe acute respiratory syndrome coronavirus 2, in Primates, Vero cells (monkey kidney cells) infected with SARS-CoV-2.
Assay [2] relates to SARS-CoV-2. The experiment in a line: microbe, parasite or virus in culture. It counts as cell-based. Particulars: for antiviral activity: human lung cells (Calu-3).
The mark [3] stands for this setting: Severe acute respiratory syndrome coronavirus 2, Calu-3 cells (human lung cells) infected with SARS-CoV-2.

Structures are written as SMILES.

In general, IC50 refers to the concentration needed to halve the response being measured.

As to `COc1ncc(-c2ccc3nccc(-c4ccnnc4)c3c2)cc1NS(=O)(=O)c1ccc(F)cc1F` [Omipalisib], the IC50 amounted to 0.49 µM in assay [1] and 0.01 µM in assay [2] (setting [3]). For the same molecule, the antiviral activity entry in assay [2] is on record as “exhibited antiviral activity”.
In assay [2] (setting [3]), `CCN1CCN(c2cc(-c3ccc(F)cc3)c3c(n2)CCCCCC3)CC1` [Blonanserin] registered an IC50 greater than 50 µM.
For the molecule `Cc1cc(O)c2c(c1)C(=O)c1cc(O)cc(O)c1C2=O` [Emodin], the results for the antiviral activity result in assay [1] (Vero cells) and in assay [2] were “significant antiviral activities” and “exhibited antiviral activity”, respectively.
In turn, `Cc1cc(O)c2c(=O)c3c(O)cc(O)c4c5c(O)cc(O)c6c(=O)c7c(O)cc(C)c8c1c2c(c34)c(c78)c65` [Hypericin] returned a half-maximal inhibitory concentration (IC50) in assay [2] (Severe acute respiratory syndrome coronavirus 2, Calu-3) greater than 50 µM.
Take `Cc1cccc(C)c1OCC(=O)N[C@@H](Cc1ccccc1)[C@@H](O)C[C@H](Cc1ccccc1)NC(=O)[C@H](C(C)C)N1CCCNC1=O` [lopinavir]: inhibition in assay [1] was half-maximal at 11 µM (IC50).
In turn, `CCN(CC)CCCC(C)Nc1ccnc2cc(Cl)ccc12` (stereo not drawn) [chloroquine] displayed an IC50 in assay [1] of 8.89 µM.
